The results in this text go back to ChEMBL document CHEMBL1687693, “Facile synthesis of a fluorescent cyclosporin a analogue to study cyclophilin 40 and cyclophilin 18 ligands” (ACS Med Chem Lett, 2010).

For orientation: Ki means a dissociation constant, usually derived from enzyme kinetics or from competition with a known ligand. Low values mean higher affinity, high ones lower affinity. For orientation: Kd means a measure of binding affinity in units of concentration.

Structures are written as SMILES.

Experiment [1] has as its target T1, Peptidyl-prolyl cis-trans isomerase D (Homo sapiens, UniProt Q08752). As to the kind of experiment: Inhibition of Cyclophilin 40 PPIase activity.
Experiment [2] concerns the target T2, Peptidyl-prolyl cis-trans isomerase A (Homo sapiens, UniProt P62937). Kind of experiment: Inhibition of Cyclophilin 18 PPIase activity.
Experiment [3] addresses T1, Peptidyl-prolyl cis-trans isomerase D. Kind of experiment: Inhibition of cyclosporin binding to Cyp40 by fluorescence polarization competition assay. Background: Polarisation of emitted light reports the rotation of a fluorescent probe.
For experiment [4], the target named is T2, Peptidyl-prolyl cis-trans isomerase A. Kind of experiment: Inhibition of cyclosporin binding to Cyp18 by fluorescence polarization competition assay.

T1 sequence (Q08752 whole entry): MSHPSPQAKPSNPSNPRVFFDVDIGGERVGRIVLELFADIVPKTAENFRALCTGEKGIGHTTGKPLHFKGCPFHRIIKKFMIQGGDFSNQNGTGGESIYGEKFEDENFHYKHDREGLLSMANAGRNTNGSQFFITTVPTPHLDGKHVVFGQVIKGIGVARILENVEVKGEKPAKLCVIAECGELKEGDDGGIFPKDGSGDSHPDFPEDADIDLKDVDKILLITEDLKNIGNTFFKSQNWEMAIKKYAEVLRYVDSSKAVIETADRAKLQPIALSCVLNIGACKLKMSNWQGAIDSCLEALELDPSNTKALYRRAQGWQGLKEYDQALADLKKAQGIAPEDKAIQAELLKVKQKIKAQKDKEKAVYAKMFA
T2 sequence (P62937 whole entry): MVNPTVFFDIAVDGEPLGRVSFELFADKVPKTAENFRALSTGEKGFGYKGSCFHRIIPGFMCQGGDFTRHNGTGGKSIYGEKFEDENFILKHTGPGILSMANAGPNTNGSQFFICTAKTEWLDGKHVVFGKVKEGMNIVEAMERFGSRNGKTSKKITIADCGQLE

On to `CC[C@@H]1NC(=O)[C@H]([C@H](O)[C@H](C)C/C=C/c2ccc(CNC(=O)c3ccc(-c4c5ccc(=O)cc-5oc5cc(O)ccc45)c(C(=O)O)c3)cc2)N(C)C(=O)[C@H](C(C)C)N(C)C(=O)[C@H](CC(C)C)N(C)C(=O)[C@H](CC(C)C)N(C)C(=O)[C@@H](C)NC(=O)[C@H](C)NC(=O)[C@H](CC(C)C)N(C)C(=O)[C@H](C(C)C)NC(=O)[C@H](CC(C)C)N(C)C(=O)CN(C)C1=O`, for which the inhibitory constant (Ki) was found to be 12 nM in experiment [1] and 106 nM in experiment [2]. Also, the results for the dissociation constant Kd in experiment [3] and in experiment [4] were 101 nM and 12 nM, respectively.
